In patent publication US20020122830A1, “Method for the treatment of a soil containing soilborne pathogens” (priority 2000, published 2002):
Read-outs that look alike come from different tables or passages of the source.

How the values were obtained:
V. dahliae MS [1] = conditions: agar medium, germination recorded two weeks later
Experimental: NH3 was generated in SPT medium by addition of various concentrations of NH4Cl to the medium and varying the pH of the medium (7, 7.6, 8 and 8.5). Immediately following cooling and hardening of the medium, 25 microsclerotia per Petri dish were transferred individually with a needle and germination recorded two weeks later.
Various amountes of NH4Cl salt (to 0, 25, 50, 100 and 200 mM) was added to soil peclate medium (SPT) and the pH of the medium adjusted to 7.0, 7.6, 8.0 or 8.5 by addition of 5 M NaOH. For each level of NH4Cl and pH, three replicate dishes were poured. The agar was allowed to solidify for 2 hours and immediately thereafter 25 V. dahliae MS were individually transferred to each dish using a sterile hypodermic needle. The dishes were wrapped with Parafilm (American National Can, Neenah Wis.) to limit loss of NH3 by volatilization, and incubated for two weeks at 24° C. in the dark. The viability of V. dahliae MS was determined as percent of total MS forming colonies. The concentration of NH3 in medium was estimated as described below and ranged from 0 to 31 mM. The pH of medium after hardening and two weeks after incubation was tested using pH test strips (ColorpHast pH 5-10; EM Science, Gibbstown N.J.) and was within 0.5 units (limit of resolution of the test strips) of that set at the start.

V. dahliae MS [2] = conditions: glycine buffer pH 8.6, exposure of four days
Experimental: Various concentrations of NH3 were generated in glycine or tricine buffer solution at pH 8.6 with NH4Cl or (NH4)2SO4 added. A 15 mL test tube was filled with appropriate buffer and NH4^+ solution, microsclerotia added, the tube capped, then placed in the dark at 24° C. and the tubes inverted daily to suspend the microsclerotia in solution. Microsclerotia survival was determined by emptying contents of the tube into a Buchner funnel, the microsclerotia being retained on Whatman #42 filter paper, rinsed with distilled water, transferred to SPT medium by placing the filter paper in contact with the agar medium and removed leaving the microsclerotia adhering to the medium.
The final volume was brought to 50 mL with the same glycine solution. Solutions were then sterilized by filtration through a 0.22 um pore size filter and 15 mL placed into three replicate sterile screw cap tubes (total capacity 15.5 mL) About 200 V. dahliae MS were immediately added to each tube and the tube closed and placed at 24° C. and in the dark. Tubes were inverted every 12 hours to mix and suspend V. dahliae MS in the solution. […] At 8 hours, 1 and 4 days, the contents of each tube was passed onto a Buchner funnel containing sterile filter paper (Whatman #42). […] The viability of V. dahliae MS was determined as the percentage of MS forming colonies out of 50 counted per replicate dish. […]

[3] = test system: V. dahliae microsclerotia; assay: Viability of V. dahliae microsclerotia buried in amended soil (test tube bioassay); format: cell-based, Verticillium dahliae; conditions: for Ammonia level in soil coinciding with a rapid loss in the viability of microsclerotia: soil amended with MBM or SM
Experimental: The viability of V. dahliae microsclerotia retrieved from soil was determined using the following experimental model system. […] Microsclerotia suspended in crushed silica sand was added to a nylon pouch which was then buried in the soil or suspended in the head space of each tube. Water was added to each tube to bring soil moisture to 0.33 bar tension. The tubes were then loosely capped, and placed in the dark at 24° C. On each date of analysis, the nylon pouches were retrieved and an Anderson air sampler used to impact the pouch contents onto a medium (soil-pectate-tergitol) selective for growth of V. dahliae. […] The levels of NH3, NO2^− and NO3^− in soil were determined at each sample date. […] The slurry was once again mechanically disrupted and its pH determined. The slurry was centrifuged and supernatant analyzed for total (NH3+NH4^+), (NHO2+NO2^−) and NO3^− using an ion chromatograph.

V. dahliae MS [4] = test system: V. dahliae MS
Experimental: The germination of V. dahliae MS was determined using a setup similar to that described above for exposure of V. dahliae MS to NH3 in buffered solution. Exceptions being various amounts of 0.270 M NaNO2 stock solution were added (from 0 to 2.0 mL) to 40 mL of 0.02 M citric acid solution (set to pH 5.0 with NaOH (Perrin and Dempsey 1974)) and brought to 50 mL volume with the same citric acid solution. All experiments were done in triiplicate and repeated. Solutions were filter sterilized and 15 mL placed into sterile screw cap tubes (total capacity 15.5 mL). Immediately, V. dahliae MS were added to each tube, the tube closed, placed at 24° C. and in the dark and inverted twice daily. At 8 hours, 1 and 4 days, V. dahliae MS viability was determined. The concentration of HNO2 in solutions was estimated as described below. The effect of NO2^− on survival of V. dahliae MS was tested by adding various amounts of NaNO2 (0 to 53 mM NO2^−) to citric acid buffer and pH set to 4.0, 5.0 and 6.0. The effect of type of NO2^− salt on survival of V. dahliae MS was tested by adding KNO2 or NaCl instead of NaNO2 to citric acid buffer (set to pH 5.0). […]
Various concentrations of HNO2 were generated in citric acid buffer solution at pH 4.0, 5.0 or 6.0 with NaNO2 added. […] Microsclerotia survival was determined as described previously for NH3 in glycine buffer.

V. dahliae MS [5] = conditions: sealer jars, 30 mL solution, four days, room temperature
Experimental: Exposure of V. dahliae MS to HNO2 gas was done using a similar procedure described above. To sealer jars (250 mL), 50 mL of a prepared solution of NaNO2 in citric acid solution was added. A V. dahliae MS bag was suspended in the atmosphere of the jar. The jar was sealed, and placed at 24° C. in the dark for 4 days. Thereafter the bags were retrieved and the viability of V. dahliae MS determined. This experiment was repeated and done in triplicate.
Various amounts of HNO2 in atmosphere were subjected to microsclerotia by suspending microsclerotia in sealer jars containing 30 mL of citric acid HNO2 buffer solution and incubated in the dark at room temperature for four days.

N [NH3, Ammonia]
NH3 concentration preventing germination of microsclerotia (V. dahliae MS [1]): > 3 mM
NH3 concentration preventing germination of microsclerotia (V. dahliae MS [2]): greater than 5 mM
NH3 accumulation consistently accompanied with a rapid decline in the viability of microsclerotia in soil ([3]; in soil): greater than 10 mM
Ammonia level in soil coinciding with a rapid loss in the viability of microsclerotia [3]: > 20 mM
Ammonia level in soil coinciding with a rapid loss in the viability of microsclerotia ([3]; listed as Ammonia): > 65 mg N kg^−1 soil

N.N.O=S(=O)(O)O [(NH4)2SO4]
kill of microsclerotia ([3]; 400 or 800 mg N kg^−1, air-dried Beauseart soil stored 1.5 years): failed to accumulate HNO2 and kill microsclerotia
kill of microsclerotia ([3]; 400 or 800 mg N kg^−1, recently collected Mackenzie soil): death of microsclerotia

N.O [NH4OH, ammonium hydroxide]
addition sufficient to induce levels of NH3 sufficient to kill microsclerotia ([3]; Thorndale or Beauseart soil, incubated four days (data not shown)): about 1800 mg NH4OH—N kg^−1

O=NO [HNO2, nitrous acid]
HNO2 concentration sufficient to kill all microsclerotia (V. dahliae MS [4]): about 0.025 mM
calculated HNO2 concentration required to kill all microsclerotia (V. dahliae MS [4]): above 0.10 mM
HNO2 solution concentration above which suspended microsclerotia died in atmosphere (V. dahliae MS [5]): 0.10 mM
